Measurements as given in patent US11207312B2, “Metallo-beta-lactamase inhibitors and methods of use thereof” (priority 2017, dated 2021).

What was measured:
VIM-2 = VIM-2 (Escherichia coli, UniProt Q5U7L7); assay: biochemical; conditions: CCF2-FA fluorescence assay; read-out: VIM2 IC50
[1] = system: Escherichia coli expressing NDM-1 (CLB30016); type: cell-based; conditions: with imipenem 1 μg/ml; 95% inhibition of bacterial growth
Procedure: (§1) The bacterial strains tested included the clinical strains Escherichia coil expressing NDM-1 (CLB30005, CLB30016), Serratia marcescens expressing IMP-1 (CL5741), and Klebsiella pneumoniae expressing VIM-1 (H-LMA599644). Inhibitor activity was measured in the presence and absence of imipenem in a 384-well microplate.
(§2) The clinical strains CLB30016, CL5741 and IHMA599644 were grown on trypticase soy agar containing 5% sheep's blood. The bacteria on agar plates were incubated at 35° C. with humidity overnight. The following day, individual colonies from each clinical strain were picked and resuspended in 5 ml saline to attain an OD600 of […], for CLB30016, C15741 and IHMA599644, respectively. These were further diluted 1:100 into 1.1× CAMHB and used to inoculate the test wells as described below.
(§3) Imipenem in 10 mM 3-(N-morpholino)propanesulfonic acid (MOPS, pH 7) was stored in single use aliquots at −80° C. […] On the day of the assay, 4 μl of antibiotic was added to 45 μl of bacteria followed by 1 μl of test compound and mixed by pipetting and with an orbital shaker. The concentration of antibiotic used in the assay was 1 μg/ml. Microplates were covered and incubated at 35° C. for 22 hours to 24 hours. At the end of the incubation, absorbance was determined using a spectrophotometer. The synergistic concentration of MBLI was determined by identifying the lowest concentration of test compound in the presence of a given concentration of antibiotic that was required to inhibit 95% of the growth of the bacteria. The results for Examples 1-209 are reported in Table 1, expressed as the concentration of compound that potentiated the action of antibiotic (imipenem) affecting 95% inhibition of bacterial growth (MITC95).

[2] = system: Klebsiella pneumoniae expressing VIM-1 (IHMA599644); type: cell-based; conditions: with imipenem 1 μg/ml; 95% inhibition of bacterial growth
Procedure: as §1, §2, §3

[3] = system: Serratia marcescens expressing IMP-1 (CL5741); type: cell-based; conditions: with imipenem 1 μg/ml; 95% inhibition of bacterial growth
Procedure: as §1, §2, §3

IMP-1 = IMP-1 (Serratia marcescens, UniProt P52699); assay: biochemical; conditions: CCF2-FA fluorescence assay, 2 hours at 25° C.; read-out: IMP1 IC50
Chain of IMP-1 (P52699 whole entry, looked up, species assumed): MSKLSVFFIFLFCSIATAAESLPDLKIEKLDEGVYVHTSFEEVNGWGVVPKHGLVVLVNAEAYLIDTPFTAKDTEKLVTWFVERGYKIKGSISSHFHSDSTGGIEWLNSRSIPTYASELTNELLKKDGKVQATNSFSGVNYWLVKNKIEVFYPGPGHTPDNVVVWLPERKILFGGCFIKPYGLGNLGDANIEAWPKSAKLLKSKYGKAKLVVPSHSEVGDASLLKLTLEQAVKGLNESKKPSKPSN
Procedure: (§4) The Class B enzyme activities were measured in the presence of the test inhibitor in a fluorescence assay against a commercially available substrate consisting of a cephalosporin core linking 7-hydroxycoumarin to fluorescein (CCF2-FA). The enzyme (NDM-1, IMP-1 or VIM-1) and the substrate were diluted in 100 mM KH2PO4 buffer (pH 7) containing 0.005% Tween-20 and 10 μM ZnSO4. In the assay, the final concentration of enzyme was 1 pM, 2 pM and 30 pM for NDM-1, IMP-1 and VIM-1, respectively, and the final concentration of CCF2-FA was 1.25 μM. The test inhibitor was dissolved in dimethylsulfoxide and diluted 1:50 in the assay, resulting in a final concentration range of 20 μM to 0.00063 μM. In a 384-well microplate, the test inhibitor was incubated with the metallo-β-lactamase enzyme and the substrate for 2 hours at 25° C. Fluorescence at 460 nm following excitation at 405 nm was measured. The IC50 value was determined from semi-logarithmic plots of enzyme inhibition versus inhibitor concentration, with a curve generated using a 4-parameter fit.

VIM-1 = VIM-1 (Pseudomonas aeruginosa (strain ATCC 15692 / DSM 22644 / CIP 104116 / JCM 14847 / LMG 12228 / 1C / PRS 101 / PAO1), UniProt A0A0F7KYQ8); assay: biochemical; conditions: CCF2-FA fluorescence assay, 2 hours at 25° C.; read-out: VIM1 IC50
Procedure: as §4

NDM-1 = NDM-1 (Klebsiella pneumoniae, UniProt C7C422); assay: biochemical; type: biochemical; conditions: CCF2-FA fluorescence assay, 2 hours at 25° C.
Chain of NDM-1 (C7C422 whole entry, looked up, species assumed): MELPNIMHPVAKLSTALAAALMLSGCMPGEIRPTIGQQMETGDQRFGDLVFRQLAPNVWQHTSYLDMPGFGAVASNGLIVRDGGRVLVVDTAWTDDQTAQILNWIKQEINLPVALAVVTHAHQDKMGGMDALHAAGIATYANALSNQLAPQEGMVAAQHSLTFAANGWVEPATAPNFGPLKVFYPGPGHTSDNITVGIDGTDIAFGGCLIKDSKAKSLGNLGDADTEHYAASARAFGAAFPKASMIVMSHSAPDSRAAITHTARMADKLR
Procedure: as §4

[4] = system: P. aeruginosa MB9798 (efflux+, IMP-1 plasmid); conditions: for MB9798 MITC95 P. aeruginosa uM Efflux WT: efflux + (MB9798) strain, imipenem at 2 μg/mL, in the presence of a class A, C, D serine β-lactamase inhibitor closely related to relebactam; for Efflux ratio: fold difference between efflux+ (MB9798) and efflux− (MB9799) strains
Excerpt: (§5) The strain background is Pseudomonas aeruginosa PAO1. A wild-type (M135919) and an isogenic strain in which multiple efflux pumps have been disrupted genetically were used. The MBL IMP-1, obtained from a clinical isolate was introduced into the strain pair by the following process:
(§6) The plasmid DNA was transformed into parental MB5919 (oprD+, efflux+, inducible AmpC) and MB5890 (oprD+, efflux−, inducible AmpC) isogenic strains by electroporation.
(§7) The strain set was then used as a pair to determine the effect of metallo-β-lactamase inhibitors of Formula I on the MIC of imipenem and/or ceftazidime. A fixed concentration of antibiotic is included in standard microbroth MIC tests, usually at the CLSI breakpoint concentration, A fixed amount of a class A/C beta-lactamase inhibitor is also included to inhibit the resident Pseudomonas AmpC enzyme. A serial titration of the metallo-β-lactamase inhibitor was included and the concentration of metallo-β-lactamase inhibitor which restores susceptibility of the strain to the included antibiotic was recorded. That concentration of metallo-β-lactamase inhibitor was then compared between the two strains to determine the fold difference between the efflux+(MB9798) and efflux−(MI39799) strains, which indicates the extent to which the MBLi is subject to efflux.

[5] = system: P. aeruginosa MB9799 (efflux-, IMP-1 plasmid); type: cell-based, Pseudomonas aeruginosa; conditions: efflux − (MB9799) strain; imipenem at 2 μg/mL; in the presence of a class A, C, D serine β-lactamase inhibitor closely related to relebactam
Excerpt: as §5, §6, §7

Row | SMILES | IC50 (VIM-2) [nM] | CLB30016 E. coli MITC95 NDM [1] [µM] | IHMA599644 K. pneumoniae MITC95 VIM [2] [µM] | CL5741 S. marcescens MITC95 IMP [3] [µM] | IC50 (IMP-1) [nM] | IC50 (VIM-1) [nM] | IC50 (NDM-1) [nM] | MB9798 MITC95 P. aeruginosa uM Efflux WT [4] [µM] | Efflux ratio [4] | MB9799 MITC95 P. aeruginosa uM Efflux Mutant [5] [µM]
1 | NC[C@@H](O)CNS(=O)(=O)c1ccc(N2CC[C@H](CN)[C@@H](O)C2)c(-c2nn[nH]n2)c1S(N)(=O)=O [Example 10] | 27 | 0.39 | 1.56 | 0.39 | 28.9 | 0.43 | 16.4 | 3.13 | 4.00 | 0.78
2 | NC[C@@H](O)CNS(=O)(=O)c1ccc(N2C[C@@H]3[C@@H](CN)[C@@H]3C2)c(-c2nn[nH]n2)c1S(N)(=O)=O [Example 11] | 24.7 | 0.78 | 0.78 | 1.56 | 35.5 | 2.03 | 8.96 | 6.25 | 4.00 | 1.56
3 | NC[C@@H](O)CNS(=O)(=O)c1ccc(N2CCC3(CC2)CC3N)c(-c2nn[nH]n2)c1S(N)(=O)=O (stereo partly drawn) [Example 12] | 17.6 | 0.78 | 1.56 | 1.56 | 4.08 | 1.48 | 1.51 | 1.56 | 2.00 | 0.78
4 | NCCC1CCN(c2ccc(S(=O)(=O)N[C@@H]3CCNC3)c(S(N)(=O)=O)c2-c2nn[nH]n2)CC1 [Example 16, (R)-4-(4-(2-aminoethyl)piperidin-1-yl)-N^1-(pyrrolidin-3-yl)-3-(2H-tetrazol-5-yl)benzene-1,2-disulfonamide] | 1.61 | 1.17 | 1.56 | 1.56 | 1.85 | 0.08 | 0.72 | 0.78 | 1.00 | 0.78
5 | NCCNS(=O)(=O)c1ccc(N2CCC(O)(CN)CC2)c(-c2nn[nH]n2)c1S(N)(=O)=O [Example 17] | 64.6 | 0.78 | 1.56 | 0.78 | 26.9 | 15.1 | 17 | 1.56 | 2.00 | 0.78
6 | C[C@@H](CN)NS(=O)(=O)c1ccc(N2CCC(O)(CN)CC2)c(-c2nn[nH]n2)c1S(N)(=O)=O [Example 18, (S)-4-(4-(aminomethyl)-4-hydroxypiperidin-1-yl)-N1-(1-aminopropan-2-yl)-3-(2H-tetrazol-5-yl)benzene-1,2-disulfonamide] | 4.8 | 0.78 | 1.56 | 0.78 | 1.48 | 0.65 | 0.43 | 0.78 | 1.00 | 0.78
